Among the data in US10968178B2, “IP6K inhibitors” (TAKEDA PHARMACEUTICAL COMPANY LIMITED, priority 2017, dated 2021) are inhibition values, retold here.

Holding throughout (assay type): biochemical
One assay concerns the target T1, human IP6K3 (Homo sapiens, UniProt Q96PC2).
T1 construct: human IP6K3 (1-410) gene; made in house; host or cells: BL21 (DE3) Escherichia coli
T1 sequence (Q96PC2 1-410): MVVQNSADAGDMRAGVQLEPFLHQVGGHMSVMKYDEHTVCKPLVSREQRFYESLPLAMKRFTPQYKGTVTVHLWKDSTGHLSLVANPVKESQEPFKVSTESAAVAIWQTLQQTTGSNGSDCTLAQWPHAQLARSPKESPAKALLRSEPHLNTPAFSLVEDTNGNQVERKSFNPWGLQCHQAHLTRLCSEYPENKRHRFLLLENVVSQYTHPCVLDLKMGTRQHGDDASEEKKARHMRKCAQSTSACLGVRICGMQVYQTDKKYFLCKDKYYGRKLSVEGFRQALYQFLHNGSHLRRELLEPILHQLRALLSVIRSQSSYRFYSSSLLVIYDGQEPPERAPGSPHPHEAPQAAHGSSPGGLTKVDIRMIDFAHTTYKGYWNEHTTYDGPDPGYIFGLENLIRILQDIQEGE
Description: IP6K enzyme inhibitory assay (ADP-Glo Kinase Assay), human IP6K3. As to conditions: compound concentration 0.1 μM; read-out: ADP-Glo method inhibitory rate (%) human IP6K3. In a few lines: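 Recombinant human IP6K (IP6K3 residues 1-410, E. coli, Ni-NTA purified) incubated with compound in 20 mM HEPES pH 7.5, 6 mM MgCl2, 0.01% Tween-20, 1 mM DTT for 60 min at room temperature. ADP formed read as luminescence by ADP-Glo.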
A general note: ADP-Glo turns the ADP formed in a reaction into a luminescent signal.

The next assay has as its target T2, human IP6K2 (Homo sapiens, UniProt Q9UHH9).
T2 construct: human IP6K2 (1-426) gene; GST; made in house; host or cells: Sf-9 insect cells
T2 sequence (Q9UHH9 1-426): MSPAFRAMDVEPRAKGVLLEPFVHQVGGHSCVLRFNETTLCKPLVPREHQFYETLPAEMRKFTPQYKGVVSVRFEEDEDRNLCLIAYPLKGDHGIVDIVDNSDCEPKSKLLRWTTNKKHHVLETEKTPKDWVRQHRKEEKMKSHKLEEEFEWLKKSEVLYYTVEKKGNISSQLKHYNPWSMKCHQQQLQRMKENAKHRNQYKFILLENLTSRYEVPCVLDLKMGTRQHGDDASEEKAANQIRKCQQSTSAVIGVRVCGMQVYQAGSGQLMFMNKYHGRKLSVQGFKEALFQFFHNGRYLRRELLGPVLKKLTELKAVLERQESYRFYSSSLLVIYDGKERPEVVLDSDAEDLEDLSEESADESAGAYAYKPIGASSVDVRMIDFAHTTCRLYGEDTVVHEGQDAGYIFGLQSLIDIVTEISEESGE
Description: IP6K enzyme inhibitory assay (ADP-Glo Kinase Assay), human IP6K2. As to conditions: compound concentration 0.1 μM; read-out: ADP-Glo method inhibitory rate (%) human IP6K2. In short, it runs like this:
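The inhibitory activity against human IP6K2 was measured with Promega's ADP-Glo Kinase Assay in 384 well plates. Test compound, diluted in assay buffer (20 mM HEPES (pH 7.5), 6 mM MgCl2, 0.01% Tween-20, 1 mM DTT), was added at 2 μL. Adding 2 μL of diluted enzyme started the reaction, which ran for 60 min at room temperature. Next, 3 μL ADP-Glo solution (30 min) and 6 μL Kinase-Detection solution (60 min) were added, and luminescence was read on an Envision plate reader.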

The next assay deals with T3, human IP6K1 (Homo sapiens, UniProt Q92551).
T3 construct: human IP6K1 (1-441) gene; GST; made in house; host or cells: Sf-9 insect cells
Description: IP6K enzyme inhibitory assay (ADP-Glo Kinase Assay), human IP6K1. As to conditions: compound concentration 0.1 μM; read-out: ADP-Glo method inhibitory rate (%) human IP6K1. In a few lines: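 Inhibition of human IP6K1 was determined with Promega's ADP-Glo Kinase Assay in 384 well plates. Test compound diluted in assay buffer (20 mM HEPES (pH 7.5), 6 mM MgCl2, 0.01% Tween-20, 1 mM DTT) was added at 2 μL, then 2 μL of enzyme started the reaction for 60 min at room temperature. Next came 3 μL ADP-Glo solution for 30 min and 6 μL Kinase-Detection solution for 60 min. Luminescence was read on an Envision plate reader.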

T3 sequence (Q92551 whole entry): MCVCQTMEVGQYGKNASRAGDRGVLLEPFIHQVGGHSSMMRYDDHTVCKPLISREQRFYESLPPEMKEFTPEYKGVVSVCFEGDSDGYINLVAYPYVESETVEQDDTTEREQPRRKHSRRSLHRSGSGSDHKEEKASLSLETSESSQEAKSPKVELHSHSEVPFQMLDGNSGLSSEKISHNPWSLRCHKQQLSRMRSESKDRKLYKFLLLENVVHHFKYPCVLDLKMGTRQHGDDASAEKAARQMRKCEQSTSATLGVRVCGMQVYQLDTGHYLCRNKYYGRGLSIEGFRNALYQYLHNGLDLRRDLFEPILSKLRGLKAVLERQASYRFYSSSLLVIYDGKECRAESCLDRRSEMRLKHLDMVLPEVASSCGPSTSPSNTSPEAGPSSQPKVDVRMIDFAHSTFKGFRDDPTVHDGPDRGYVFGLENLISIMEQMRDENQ

Take `N#Cc1cccc(O[C@H]2CC[C@@]3(CC2)C(=O)Nc2ccc(C(=O)O)cc23)c1F` [Example 60, (1r,4r)-4-(3-cyano-2-fluorophenoxy)-2′-oxo-1′,2′-dihydrospiro[cyclohexane-1,3′-indole]-5′-carboxylic acid]: the inhibition at 0.1 µM on human IP6K3 turned out to be 98%; at human IP6K2 it was 90%; on human IP6K1 it was 87%.

For `Cc1cc(C)cc(O[C@H]2CC[C@@]3(CC2)C(=O)Nc2ccc(C(=O)O)cc23)c1` [Example 48, (1r,4r)-4-(3,5-dimethylphenoxy)-2′-oxo-1′,2′-dihydrospiro[cyclohexane-1,3′-indole]-5′-carboxylic acid], the inhibition at 0.1 µM was 97% at human IP6K3, 91% on human IP6K2 and 86% at human IP6K1.

For the molecule `O=C(O)c1ccc2c(n1)[C@]1(CC[C@H](Oc3ncc(C4CC4)cc3Cl)CC1)C(=O)N2` [Example 111, (1s,4s)-4-((3-chloro-5-cyclopropylpyridin-2-yl)oxy)-2′-oxo-1′,2′-dihydrospiro[cyclohexane-1,3′-pyrrolo[3,2-b]pyridine]-5′-carboxylic acid], the results for the inhibition at 0.1 µM at human IP6K3, at human IP6K2 and on human IP6K1 were 98%, 99% and 91%, respectively.

Take `Cc1ccc(O[C@H]2CC[C@@]3(CC2)C(=O)Nc2ccc(C(=O)O)cc23)cn1` [Example 34, (1r,4r)-4-((6-methylpyridin-3-yl)oxy)-2′-oxo-1′,2′-dihydrospiro[cyclohexane-1,3′-indole]-5′-carboxylic acid]: the inhibition at 0.1 µM at human IP6K3 was 91%; on human IP6K2 it was 76%; at human IP6K1 it was 63%.

In the case of `N#Cc1cc(O[C@H]2CC[C@@]3(CC2)C(=O)Nc2ccc(C(=O)O)cc23)ccc1Cl` [Example 71, (1r,4r)-4-(4-chloro-3-cyanophenoxy)-2′-oxo-1′,2′-dihydrospiro[cyclohexane-1,3′-indole]-5′-carboxylic acid], the inhibition at 0.1 µM on human IP6K3 was 95%; on human IP6K2, 90%; on human IP6K1, 88%.

Take `O=C(O)c1ccc2c(c1)[C@]1(CC[C@@H](Oc3ccc(Cl)c(F)c3)CC1)C(=O)N2` [Example 69, (1r,4r)-4-(4-chloro-3-fluorophenoxy)-2′-oxo-1′,2′-dihydrospiro[cyclohexane-1,3′-indole]-5′-carboxylic acid]: the inhibition at 0.1 µM was 96% at human IP6K3, 100% at human IP6K2 and 100% on human IP6K1.

Turning to `NC(=O)c1cc(Cl)ccc1O[C@H]1CC[C@@]2(CC1)C(=O)Nc1ccc(C(=O)O)cc12` [Example 8, (1r,4r)-4-(2-carbamoyl-4-chlorophenoxy)-2′-oxo-1′,2′-dihydrospiro[cyclohexane-1,3′-indole]-5′-carboxylic acid], the inhibition at 0.1 µM on human IP6K3 came out at 95%; on human IP6K2, 97%; on human IP6K1, 100%.

For `O=C(O)c1ccc2c(c1)[C@]1(CC[C@@H](Oc3cc(F)ccc3F)CC1)C(=O)N2` [Example 56, (1r,4r)-4-(2,5-difluorophenoxy)-2′-oxo-1′,2′-dihydrospiro[cyclohexane-1,3′-indole]-5′-carboxylic acid], the figures for the inhibition at 0.1 µM on human IP6K3, on human IP6K2 and on human IP6K1 were 99%, 92% and 97%, respectively.

Take `O=C(O)c1ccc2c(n1)[C@]1(CC[C@H](Oc3ccc(Cl)cc3C(F)(F)F)CC1)C(=O)N2` [Example 96, (1s,4s)-4-(4-chloro-2-(trifluoromethyl)phenoxy)-2′-oxo-1′,2′-dihydrospiro[cyclohexane-1,3′-pyrrolo[3,2-b]pyridine]-5′-carboxylic acid]: the inhibition at 0.1 µM was determined as 101% on human IP6K3, 99% at human IP6K2 and 95% on human IP6K1.

For the molecule `Cc1cc(Cl)cnc1O[C@H]1CC[C@]2(CC1)C(=O)Nc1ccc(C(=O)O)nc12` [Example 81, (1s,4s)-4-((5-chloro-3-methylpyridin-2-yl)oxy)-2′-oxo-1′,2′-dihydrospiro[cyclohexane-1,3′-pyrrolo[3,2-b]pyridine]-5′-carboxylic acid], the inhibition at 0.1 µM on human IP6K3 stood at 100%; on human IP6K2, 100%; on human IP6K1, 96%.

Take `O=C(O)c1ccc2c(c1)[C@]1(CC[C@@H](Oc3cc(F)ccc3Cl)CC1)C(=O)N2` [Example 65, (1r,4r)-4-(2-chloro-5-fluorophenoxy)-2′-oxo-1′,2′-dihydrospiro[cyclohexane-1,3′-indole]-5′-carboxylic acid]: the inhibition at 0.1 µM on human IP6K3 was 97%; at human IP6K2, 95%; on human IP6K1 it was 93%.

For the molecule `O=C(O)c1ccc2c(c1)[C@]1(CC[C@@H](Oc3ncc(C4CC4)cc3C(F)(F)F)CC1)C(=O)N2` [Example 31, (1r,4r)-4-((5-cyclopropyl-3-(trifluoromethyl)pyridin-2-yl)oxy)-2′-oxo-1′,2′-dihydrospiro[cyclohexane-1,3′-indole]-5′-carboxylic acid], the inhibition at 0.1 µM at human IP6K3 amounted to 100%; at human IP6K2 it was 101%; on human IP6K1 it was 101%.

For `Cc1cc(F)ccc1O[C@H]1CC[C@@]2(CC1)C(=O)Nc1ccc(C(=O)O)cc12` [Example 50, (1r,4r)-4-(4-fluoro-2-methylphenoxy)-2′-oxo-1′,2′-dihydrospiro[cyclohexane-1,3′-indole]-5′-carboxylic acid], the inhibition at 0.1 µM is 96% on human IP6K3, 100% on human IP6K2 and 101% on human IP6K1.

Regarding `Cc1cccnc1O[C@H]1CC[C@@]2(CC1)C(=O)Nc1ccc(C(=O)O)cc12` [Example 21, (1r,4r)-4-((3-methylpyridin-2-yl)oxy)-2′-oxo-1′,2′-dihydrospiro[cyclohexane-1,3′-indole]-5′-carboxylic acid], the inhibition at 0.1 µM amounted to 96% at human IP6K3, 91% on human IP6K2 and 79% at human IP6K1.

As for `Cc1ccc(O[C@H]2CC[C@@]3(CC2)C(=O)Nc2ccc(C(=O)O)cc23)nc1` [Example 20, (1r,4r)-4-((5-methylpyridin-2-yl)oxy)-2′-oxo-1′,2′-dihydrospiro[cyclohexane-1,3′-indole]-5′-carboxylic acid], the inhibition at 0.1 µM was 98% on human IP6K3, 95% at human IP6K2 and 79% at human IP6K1.

For `O=C(O)c1ccc2c(c1)[C@]1(CC[C@H](Oc3cc(F)cnc3F)CC1)C(=O)N2` [Example 5, (1s,4s)-4-((2,5-difluoropyridin-3-yl)oxy)-2′-oxo-1′,2′-dihydrospiro[cyclohexane-1,3′-indole]-5′-carboxylic acid], the values for the inhibition at 0.1 µM at human IP6K3, on human IP6K2 and at human IP6K1 were 94%, 89% and 86%, respectively.

With `O=C(O)c1ccc2c(c1)[C@]1(CC[C@@H](Oc3cc(F)cc(Cl)c3)CC1)C(=O)N2` [Example 64, (1r,4r)-4-(3-chloro-5-fluorophenoxy)-2′-oxo-1′,2′-dihydrospiro[cyclohexane-1,3′-indole]-5′-carboxylic acid], the inhibition at 0.1 µM at human IP6K3 was 94%; at human IP6K2, 93%; on human IP6K1, 80%.

Take `Cc1ccc(O[C@H]2CC[C@@]3(CC2)C(=O)Nc2ccc(C(=O)O)cc23)cc1C` [Example 46, (1r,4r)-4-(3,4-dimethylphenoxy)-2′-oxo-1′,2′-dihydrospiro[cyclohexane-1,3′-indole]-5′-carboxylic acid]: the inhibition at 0.1 µM on human IP6K3 was found to be 99%; on human IP6K2, 98%; at human IP6K1, 97%.
